The structures appear in SMILES notation. Starred links: 1 amine or outer side, 2 acyl side, 3 side chain; linkers in the order of their positions; H or OH if unused. Positions of bridges follow the written chain, without caps; N, C: chain ends. Non-standard residues stand in square brackets, D forms with d. Residues, ends and D or L forms follow the SMILES beside them. *: point of attachment. hPhe(3-Cl-4-CF3) = N[C@@H](CCc1ccc(C(F)(F)F)c(Cl)c1)C(=O)O; X48 = O=C([C@H](CCc1ccc(S(F)(F)(F)(F)F)cc1)N[*:1])[*:2]; NMePhe(4-CF3) = CN[C@@H](Cc1ccc(C(F)(F)F)cc1)C(=O)O; hPhe(4-CF3) = N[C@@H](CCc1ccc(C(F)(F)F)cc1)C(=O)O; NMePhe(4-Cl) = CN[C@@H](Cc1ccc(Cl)cc1)C(=O)O; NMePhe(4-Me) = CN[C@@H](Cc1ccc(C)cc1)C(=O)O; NMePhe(2-Cl) = CN[C@@H](Cc1ccccc1Cl)C(=O)O; NMedβ3hAla = C[C@H](CC(=O)[*:2])N(C)[*:1]; NMeAla(cPent) = CN[C@@H](CC1CCCC1)C(=O)O; X79 = CC(C)CCOC[C@H](CC(=O)[*:2])N[*:1]; NMeGly(cPent) = CN[C@H](C(=O)O)C1CCCC1; Phe(3-I) = N[C@@H](Cc1cccc(I)c1)C(=O)O; Pro(4,4-F2) = O=C(O)[C@@H]1CC(F)(F)CN1; NMeCha = CN[C@@H](CC1CCCCC1)C(=O)O; NMeChg = CN[C@H](C(=O)O)C1CCCCC1; NMeF = CN[C@@H](Cc1ccccc1)C(=O)O; NMeI = CC[C@H](C)[C@H](NC)C(=O)O; NMeD = CN[C@@H](CC(=O)O)C(=O)O; CH2CONHtBu = CC(C)(C)NC(=O)C*; NMeL = CN[C@@H](CC(C)C)C(=O)O; NMeNva = CCC[C@H](NC)C(=O)O; NMeV = CN[C@H](C(=O)O)C(C)C; d(β3hA) = C[C@@H](N)CC(=O)O; NMeS = CN[C@@H](CO)C(=O)O; NMeA = CN[C@@H](C)C(=O)O; NMeAib = CNC(C)(C)C(=O)O; Piperidide = C1CCN(*)CC1; Ac5c = NC1(C(=O)O)CCCC1; Aze = O=C(O)[C@@H]1CCN1; Aib = CC(C)(N)C(=O)O; βAla = NCCC(=O)O; Sar = CNCC(=O)O

By IC50 is commonly meant the midpoint of a concentration-inhibition curve.

For this test, the target named is T1, Kras and SOS1 (biotin-tagged human Kras loaded with GDP, His-tagged human SOS1) (Homo sapiens, UniProt P01116, G12D).
T1 construct: made in house; host or cells: E. coli (stated for Kras only)
T1 sequence (P01116 1-188 isoform P01116-2 G12D): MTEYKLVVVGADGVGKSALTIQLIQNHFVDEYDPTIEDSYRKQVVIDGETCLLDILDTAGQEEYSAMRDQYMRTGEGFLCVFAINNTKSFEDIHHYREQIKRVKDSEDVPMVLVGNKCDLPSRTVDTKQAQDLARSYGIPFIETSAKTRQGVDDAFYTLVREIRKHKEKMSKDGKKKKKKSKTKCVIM
Description: Protein-protein interaction inhibition between Kras and SOS1 (KrasGl2D-SOS PPI) using AlphaScreen. Format: binding. Conditions: AlphaScreen; biotin-tagged human Kras loaded with GDP, His-tagged human SOS1; read-out: KRAS G12D-SOS PPI IC50. In outline:
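Energy transfer from nickel-chelate donor beads bound to His-SOS1 to streptavidin acceptor beads bound to biotin-Kras, expressed in E. coli and loaded with GDP after purification, was monitored. Donors were excited at 680 nm; singlet oxygen reaching acceptors gave emission read at 520-620 nm.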
For orientation: In Alpha technology, singlet oxygen from a donor bead excites a nearby acceptor bead.
With `CC[C@H](C)[C@@H]1NC(=O)[C@H](CC(C)C)N(C)C(=O)C[C@@H](C)N(C)C(=O)[C@H](CC2CCCC2)N(C)C(=O)C2(CCCC2)NC(=O)[C@@H]2CCCN2C(=O)[C@H](CCc2ccc(C(F)(F)F)c(Cl)c2)NC(=O)CN(C)C(=O)[C@H](CC2CCCCC2)N(C)C(=O)CN(C)C(=O)CN(C)C1=O` [Compound 991] (cyclo([Ac5c][NMeAla(cPent)][NMedβ3hAla][NMeL]I[Sar][Sar][NMeCha][Sar][hPhe(3-Cl-4-CF3)]P)), the concentration for half-maximal inhibition (IC50) came to 0.076 µM.

On to `CC[C@H](C)[C@@H]1NC(=O)[C@H](CC(C)C)N(C)C(=O)C[C@@H](COCCC(C)C)NC(=O)[C@H](C(C)C)N(C)C(=O)C2(CCCC2)NC(=O)[C@@H]2CCCN2C(=O)[C@H](CCc2ccc(C(F)(F)F)c(Cl)c2)NC(=O)CN(C)C(=O)[C@H](CC2CCCCC2)N(C)C(=O)CN(C)C(=O)CN(C)C1=O` [Compound 992] (cyclo([Ac5c][NMeV][X79][NMeL]I[Sar][Sar][NMeCha][Sar][hPhe(3-Cl-4-CF3)]P)), for which the 50% inhibitory concentration (IC50) was 0.18 µM. For the molecule `CC[C@H](C)[C@@H]1NC(=O)[C@H](CC(C)C)N(C)C(=O)C[C@@H](C(=O)N(C)C)N(C)C(=O)[C@H](C2CCCC2)N(C)C(=O)[C@H](C)NC(=O)[C@H](C)N(C)C(=O)[C@H](CCc2ccc(C(F)(F)F)c(Cl)c2)NC(=O)CN(C)C(=O)[C@H](CC2CCCCC2)N(C)C(=O)[C@@H]2CCN2C(=O)[C@H](C)N(C)C1=O` [Compound 993] ([NMeL]I[NMeA][Aze][NMeCha][Sar][hPhe(3-Cl-4-CF3)][NMeA]A[NMeGly(cPent)][NMeD]-NMe2; lactam N-11), the half-maximal inhibitory concentration (IC50) is 0.016 µM. For `CC[C@H](C)[C@@H]1NC(=O)[C@H](C)N(C)C(=O)C[C@@H](C)NC(=O)[C@H](C(C)C)N(C)C(=O)[C@H](Cc2ccccc2)N(C)C(=O)[C@H](CC(C)C)N(C)C(=O)[C@H](CCc2ccc(C(F)(F)F)c(Cl)c2)NC(=O)CN(C)C(=O)[C@H](Cc2ccc(Cl)cc2)N(C)C(=O)[C@@H]2CCN2C(=O)CN(C)C1=O` [Compound 994] (cyclo([Aze][NMePhe(4-Cl)][Sar][hPhe(3-Cl-4-CF3)][NMeL][NMeF][NMeV][d(β3hA)][NMeA]I[Sar])), the IC50 was 0.011 µM.

As to `CC[C@H](C)[C@@H]1NC(=O)[C@H](CC(C)C)N(C)C(=O)C[C@@H](C(=O)N2CCCCC2)N(C)C(=O)[C@H](C(C)C)N(C)C(=O)C2(CCCC2)NC(=O)[C@@H]2CCCN2C(=O)[C@H](CCc2ccc(C(F)(F)F)c(Cl)c2)NC(=O)CN(C)C(=O)[C@H](CC2CCCCC2)N(C)C(=O)[C@@H]2CCN2C(=O)[C@H](COCC(=O)NC(C)(C)C)N(C)C1=O` [Compound 998] ([NMeL]I[NMeS](CH2CONHtBu)[Aze][NMeCha][Sar][hPhe(3-Cl-4-CF3)]P[Ac5c][NMeV][NMeD]-Piperidide; lactam N-11), the IC50 came to 0.017 µM. `CC[C@H](C)[C@@H]1NC(=O)[C@H](CC(C)C)N(C)C(=O)C[C@@H](C)N(C)C(=O)[C@H]([C@@H](C)CC)N(C)C(=O)C2(CCCC2)NC(=O)[C@@H]2CC(F)(F)CN2C(=O)[C@H](CCc2ccc(C(F)(F)F)c(Cl)c2)NC(=O)CN(C)C(=O)[C@H](Cc2ccc(C(F)(F)F)cc2)N(C)C(=O)CN(C)C(=O)CN(C)C1=O` [Compound 1003] (cyclo([Ac5c][NMeI][NMedβ3hAla][NMeL]I[Sar][Sar][NMePhe(4-CF3)][Sar][hPhe(3-Cl-4-CF3)][Pro(4,4-F2)])): the half-inhibitory concentration (IC50) was 0.0084 µM. The result for `CC[C@H](C)[C@@H]1NC(=O)CCNC(=O)[C@H](Cc2ccccc2)N(C)C(=O)[C@H](C2CCCCC2)N(C)C(=O)C2(CCCC2)NC(=O)[C@@H]2CCCN2C(=O)[C@H](CCc2ccc(C(F)(F)F)c(Cl)c2)NC(=O)CN(C)C(=O)[C@H](CC2CCCCC2)N(C)C(=O)CN(C)C(=O)CN(C)C1=O` [Compound 1007] (cyclo([Ac5c][NMeChg][NMeF][βAla]I[Sar][Sar][NMeCha][Sar][hPhe(3-Cl-4-CF3)]P)) reads 0.013 µM; that for `CC[C@H](C)[C@@H]1NC(=O)[C@H](CC(C)C)N(C)C(=O)C[C@@H](C(=O)N(C)C)N(C)C(=O)[C@H](C2CCCC2)N(C)C(=O)C2(CCCC2)NC(=O)[C@H](Cc2ccccc2Cl)N(C)C(=O)[C@H](CCc2ccc(C(F)(F)F)c(Cl)c2)NC(=O)CN(C)C(=O)[C@H](CC2CCCCC2)N(C)C(=O)[C@@H]2CCN2C(=O)[C@H](C)N(C)C1=O` [Compound 1009] ([NMeL]I[NMeA][Aze][NMeCha][Sar][hPhe(3-Cl-4-CF3)][NMePhe(2-Cl)][Ac5c][NMeGly(cPent)][NMeD]-NMe2; lactam N-11), 0.043 µM; that for `CC[C@H](C)[C@@H]1NC(=O)[C@H](CC(C)C)N(C)C(=O)C[C@@H](C)NC(=O)[C@H](CC(C)C)N(C)C(=O)C(C)(C)NC(=O)[C@@H]2CCCN2C(=O)[C@H](CCc2ccc(C(F)(F)F)cc2)NC(=O)CN(C)C(=O)[C@H](Cc2ccc(Cl)cc2)N(C)C(=O)CN(C)C(=O)CN(C)C1=O` [Compound 1013] (cyclo([Aib][NMeL][d(β3hA)][NMeL]I[Sar][Sar][NMePhe(4-Cl)][Sar][hPhe(4-CF3)]P)), 0.031 µM. For the molecule `CC[C@H](C)[C@@H]1NC(=O)[C@H](CC(C)C)N(C)C(=O)C[C@@H](C(=O)N2CCCCC2)N(C)C(=O)[C@H](CC(C)C)NC(=O)C(C)(C)N(C)C(=O)[C@H](Cc2ccccc2)NC(=O)[C@H](Cc2cccc(I)c2)NC(=O)CN(C)C(=O)[C@H](Cc2ccc(C)cc2)N(C)C(=O)[C@@H]2CCN2C(=O)[C@H](C)N(C)C1=O` [Compound 1015] ([NMeL]I[NMeA][Aze][NMePhe(4-Me)][Sar][Phe(3-I)]F[NMeAib]L[NMeD]-Piperidide; lactam N-11), the IC50 was found to be 0.018 µM. Regarding `CC[C@H](C)[C@@H]1NC(=O)[C@H](CC(C)C)N(C)C(=O)C[C@@H](C)NC(=O)[C@H](C(C)C)N(C)C(=O)C2(CCCC2)NC(=O)[C@@H]2CCCN2C(=O)[C@H](CCc2ccc(C(F)(F)F)c(Cl)c2)NC(=O)CN(C)C(=O)[C@H](CC2CCCCC2)N(C)C(=O)CN(C)C(=O)[C@@H]2CCN2C1=O` [Compound 1020] (cyclo([Ac5c][NMeV][d(β3hA)][NMeL]I[Aze][Sar][NMeCha][Sar][hPhe(3-Cl-4-CF3)]P)), the IC50 amounted to 0.051 µM. In the case of `CC[C@H](C)[C@@H]1NC(=O)[C@H](CC(C)C)N(C)C(=O)C[C@@H](C)NC(=O)[C@H](CC(C)C)N(C)C(=O)C2(CCCC2)NC(=O)[C@@H]2CCCN2C(=O)[C@H](CCc2ccc(S(F)(F)(F)(F)F)cc2)NC(=O)CN(C)C(=O)[C@H](CC2CCCCC2)N(C)C(=O)CN(C)C(=O)CN(C)C1=O` [Compound 1021] (cyclo([Ac5c][NMeL][d(β3hA)][NMeL]I[Sar][Sar][NMeCha][Sar][X48]P)), the IC50 stood at 0.24 µM. The result for `CCC[C@H]1C(=O)N(C)CC(=O)N[C@@H](CCc2ccc(C(F)(F)F)c(Cl)c2)C(=O)N2CCC[C@H]2C(=O)NC2(CCCC2)C(=O)N(C)[C@@H](C(C)C)C(=O)N(C)[C@H](C(=O)N2CCCCC2)CC(=O)N(C)[C@@H](CC(C)C)C(=O)N[C@@H]([C@@H](C)CC)C(=O)N(C)[C@@H](C)C(=O)N2CC[C@H]2C(=O)N1C` [Compound 1027] ([NMeL]I[NMeA][Aze][NMeNva][Sar][hPhe(3-Cl-4-CF3)]P[Ac5c][NMeV][NMeD]-Piperidide; lactam N-11) reads 0.0082 µM; that for `CC[C@H](C)[C@@H]1NC(=O)[C@H](C)N(C)C(=O)C[C@@H](C)NC(=O)[C@H](CC(C)C)N(C)C(=O)[C@H](Cc2ccccc2)N(C)C(=O)[C@@H]2CCCN2C(=O)[C@H](CCc2ccc(C(F)(F)F)cc2)NC(=O)CN(C)C(=O)[C@H](CC2CCCCC2)N(C)C(=O)CN(C)C(=O)CN(C)C1=O` [Compound 1031] (cyclo(I[Sar][Sar][NMeCha][Sar][hPhe(4-CF3)]P[NMeF][NMeL][d(β3hA)][NMeA])), 0.32 µM.

The values above are taken from patent publication US12371454B2, “Cyclic peptide compound having Kras inhibitory action” (priority 2019, dated 2025).
